Laboratory results published in article PMC6130796, “Copper-Catalyzed Syntheses of Pyrene-Pyrazole Pharmacophores and Structure Activity Studies for Tubulin Polymerization” (ACS Omega, 2018).
Entries after “also recorded” stand apart in the source; their conditions may differ.

How the values were obtained:
[1] = tested on: human melanoma C32 cells; test: MTT assay in C32 cells; assay type: cell-based; conditions: 48 h
Source text: (§1) An in vitro cancer cell two-dimensional culture model was used for this study using 3-(4,5-dimethylthiazole-2-yl)-2,5-diphenyltetrazolium bromide (MTT) assay.[19]
(§2) The cell viability of PPPs was investigated using 3-(4,5-dimethylthiazole-2-yl)-2,5-diphenyltetrazolium bromide (MTT) reduction assay in the presence of 10% fetal bovine serum in antibiotic free media. The yellow tetrazolium salt (MTT) is modified by mitochondrial dehydrogenases to its purple formazan derivative (MTT-formazan) with maximum absorbance at 560–570 nm. […] Experiment was performed in 96-well plates (Cellstar, Germany) growing 10 000 cells (MCF-7, MDA-MB231, and MCF-10A) per well for 24 h before treatments. Experiments were performed for various concentrations of PPPs ranging from 10^5 to 10^0 nM and compared with Taxol as positive control ranging from 10^2 to 10^–3 nM, as described in particular experiment. Cells were incubated for 48 h before performing the MTT assay. At the end of the incubation period, cells were treated with MTT (20 μL, 5 mg/mL) per well and further incubated for 4 h. At the end of the incubation, the entire medium was removed from the wells and 200 μL of dimethyl sulfoxide (DMSO) was added to dissolve blue-colored formazan crystals produced by mitochondrial respirations. The percentage cell viability was obtained by calculating absorbance values and calculated using the formula %viability = {[A630(treated cells) – (background)]/[A630(untreated cells) – background]} × 100.

[2] = tested on: MDA-MB231 cells; test: MTT assay in MDA-MB231 cells; assay type: cell-based
Source text: as §1, §2

[3] = tested on: MCF-7 cells; test: MTT assay in MCF-7 cells; assay type: cell-based; conditions: for IC50: MCF-7, MTT; for viability at 10 µM: read-out: viable cells
Source text: as §1, §2

[4] = tested on: MCF-10A cells; test: MTT assay in noncancerous MCF-10A cells; assay type: cell-based, human; conditions: 10 μM, 48 h
Description: Effectivity of anticancer drugs not only depends on cancer inhibition property but minimum effect to noncancerous normal cells. A representative study was performed on MCF-10A cells of noncancerous nature and human breast origin. […] It indicates the selectivity of PPPs toward cancer cells, presumably due to higher variation in tubulin polymerization processes.
as §2

[5] = tested on: MCF-7 cells; test: Cell growth density study (bright field images); assay type: cell-based; conditions: MCF-7, 1 μM
[6] = tested on: tubulin; test: In vitro microtubule polymerization assay (fluorescence); assay type: biochemical; set-up: dose or concentration left out as unconfirmed; conditions: 37 °C, 1.5 h, λex 350 nm, 430 nm
Description: To gather further insight into the molecular mechanism of action of PPPs, an in vitro cytoskeleton assay was carried out to investigate the effect of these agents on microtubule polymerization (Figure 1). In this protocol, 85 μL of 10 mg/mL tubulin stock was incubated with tubulin glycerol buffer for 1.5 h at 37 °C in the presence of various PPPs at a fixed concentration (20 mM). Following this, the degree of tubulin polymerization was evaluated by observing their fluorescence profile with time.
The content of polymerized microtubules was monitored by measuring fluorescence intensity at 430 nm (λex = 350 nm) every 7 s for 1.5 h. Paclitaxel (PTXL), a well-known microtubule stabilizer, was added to the assay as a positive control, whereas the tubulin glycerol buffer acted as a negative control. […] This implies that addition of PPP1–7 into the assay led to a stabilization of microtubule polymerization. […] Further inspection to correlate between the obtained trend in tubulin polymerization and modifications attempted at the N-1 and C-3 positions yielded interesting observations. […]
Unless otherwise mentioned, the reagents and chemicals were purchased from Sigma-Aldrich (St. Louis, MO) and used without any purification. […] High-resolution mass spectra (HRMS) were recorded on a quad time-of-flight electrospray ionization (ESI)-MS instrument.

[7] = tested on: tubulin; test: SDS-PAGE of PPP-tubulin mixtures, band intensity of polymerized tubulin (FIJI); assay type: biochemical; conditions: Coomassie stain, among all PPP–tubulin mixtures
Description: With this promising result, we further focused on confirming the polymerization of microtubules. PPP–tubulin mixtures were collected from the abovementioned assay, and a sodium dodecyl sulfate polyacrylamide gel electrophoresis (SDS-PAGE) was performed to separate both tubulin as well as polymerized tubulin from the mixture. […] Two distinct bands were obtained, one in the region of 40–55 kDa, which is consistent with the molecular weight of α-, β-tubulin,[16] and other in the region of 130 kDa. This is presumably a result of tubulin polymerization. A semiquantitative analysis of the polymerized tubulin bands was performed using FIJI[17] to calculate the band intensities, as shown in Figure 2b. Fold change of band intensities was further calculated with respect to PPP5–tubulin mixture (Figure 2c).  Figure 2 (a) Coomassie-stained gel lanes for tubulin–dye mixtures, showing two migrating populations, polymerized tubulin (∼130 kDa MW), and α-, β-tubulin (∼50 kDa MW). A representative molecular weight standard lane is also shown across the sample lanes for comparison.

[8] = Homo sapiens, MCF7, MCF-7, 10 μM, 48 h

1-(Benzo[b]thiophen-2-yl)-3-methyl-5-(pyren-1-yl)-1H-pyrazole [PPP3]
IC50 [1]: > 100 µM
IC50 ([2]; 48 h): > 100 µM
viable cells ([3]; MCF-7, 10 μM, 48 h): 52 ± 5%
IC50 ([3]; 48 h): > 100 µM

Cc1cc(-c2ccc3ccc4cccc5ccc2c3c45)n(-c2ccccc2)n1 [PPP1, 3-Methyl-1-phenyl-5-(pyren-1-yl)-1H-pyrazole]
IC50 ([1]; Homo sapiens): > 100 µM
IC50 ([2]; Homo sapiens, MDA-MB-231, 48 h): > 100 µM
cell death in noncancerous cells [4]: did not result in any significant cell death
viability at 10 µM [3, 8]: 50 ± 5%
IC50 ([3]; Homo sapiens, MCF7, 48 h): 60 ± 10 µM

Cc1cc(-c2ccc3ccc4cccc5ccc2c3c45)n(-c2ccc(-c3ccccc3)cc2)n1 [PPP2, 1-([1,1′-Biphenyl]-4-yl)-3-methyl-5-(pyren-1-yl)-1H-pyrazole]
IC50 ([1]; Homo sapiens): > 100 µM
IC50 ([2]; Homo sapiens, MDA-MB-231, 48 h): 15 ± 5 µM
viability at 10 µM [3, 8]: 45 ± 3%
IC50 ([3]; Homo sapiens, MCF7, 48 h): 34 ± 4 µM

c1ccc(-c2cc(-c3ccc4ccc5cccc6ccc3c4c56)n(-c3ccccc3)n2)cc1 [PPP4, 1,3-Diphenyl-5-(pyren-1-yl)-1H-pyrazole]
IC50 ([1]; Homo sapiens): 5 ± 2 µM
IC50 ([2]; Homo sapiens, MDA-MB-231, 48 h): 0.5 ± 0.2 µM
cell death in noncancerous cells [4]: did not result in any significant cell death
viability at 10 µM [3, 8]: 30 ± 3%
IC50 ([3]; Homo sapiens, MCF7, 48 h): 1 ± 0.5 µM
loss in cell growth density [5]: maximum loss

c1ccc(-c2ccc(-n3nc(-c4ccccc4)cc3-c3ccc4ccc5cccc6ccc3c4c56)cc2)cc1 [PPP5, 1-([1,1′-Biphenyl]-4-yl)-3-phenyl-5-(pyren-1-yl)-1H-pyrazole]
effect on microtubule polymerization (fluorescence intensity with time) [6]: inhibits microtubule formation; also recorded: inhibition of microtubule polymerization
IC50 ([1]; Homo sapiens): > 100 µM
IC50 ([2]; Homo sapiens, MDA-MB-231, 48 h): > 100 µM
viability at 10 µM [3, 8]: 70 ± 10%
IC50 ([3]; Homo sapiens, MCF7, 48 h): > 100 µM
band intensity of polymerized tubulin (∼130 kDa) [7]: least

Cc1cc(-c2ccc3ccc4cccc5ccc2c3c45)[nH]n1 [PPP6, 3-Methyl-5-(pyren-1-yl)-1H-pyrazole]
IC50 ([1]; Homo sapiens): > 100 µM
IC50 ([2]; Homo sapiens, MDA-MB-231, 48 h): > 100 µM
viability at 10 µM [3, 8]: 55 ± 5%
IC50 ([3]; Homo sapiens, MCF7, 48 h): 43 ± 5 µM

O=C(O)c1cc(-c2ccc3ccc4cccc5ccc2c3c45)n(-c2ccccc2)n1 [PPP7, 1-Phenyl-5-(pyren-1-yl)-1H-pyrazole-3-carboxylic Acid]
IC50 ([1]; Homo sapiens): 14 ± 2 µM
IC50 ([2]; Homo sapiens, MDA-MB-231, 48 h): 10 ± 2 µM
cell death in noncancerous cells [4]: did not result in any significant cell death
viability at 10 µM [3, 8]: 50 ± 5%
IC50 ([3]; Homo sapiens, MCF7, 48 h): 8 ± 2 µM

CC(=O)O[C@H]1C(=O)[C@@]2(C)[C@H]([C@H](OC(=O)c3ccccc3)[C@]3(O)C[C@H](OC(=O)[C@H](O)[C@@H](NC(=O)c4ccccc4)c4ccccc4)C(C)=C1C3(C)C)[C@]1(OC(C)=O)CO[C@@H]1C[C@@H]2O [Taxol, Paclitaxel, reference compound]
effect on microtubule polymerization (fluorescence intensity with time) ([6]; listed as PTXL): increase in relative fluorescence intensity; also recorded: stabilizing the tubulin polymerization reaction
cell growth level ([3]; MCF-7, positive control, Figure 4b): 42 ± 10%
